Assay results: US20230167088A1, “1-PYRAZINYLPYRAZOLYL-3-OXYALKYL ACIDS AND THEIR DERIVATIVES, AND THEIR USE FOR CONTROL OF UNDESIRED PLANT GROWTH” (BAYER AKTIENGESELLSCHAFT, priority 2020, published 2023)

Columns and labels:
VERPE [1] = test: Herbicidal pre-emergence action 2a (greenhouse pots, visual scoring); format: in vivo, Veronica persica; conditions: dosage 320 g/ha, visual scoring after about 3 weeks vs untreated controls
Procedure, shortened: (§1)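 Weed and crop seeds placed in pots and covered with soil; aqueous suspension or emulsion of WP/EC formulation applied to the soil surface before emergence (600 l/ha, 0.5% additive, 320 and/or 80 g/ha). Pots kept in the greenhouse about 3 weeks; visual percentage scoring.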

ECHCG [2] = test: Herbicidal pre-emergence action 2b (doubly sown, 1280 g/ha); format: in vivo, Echinochloa crus-galli; conditions: doubly sown pots, dosage 1280 g/ha, visual scoring after about 3 weeks
Procedure, shortened: (§2)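 Seeds are placed in sandy loam and covered, then the formulated compound is applied to the covering soil in water equivalent to 600 litres per hectare with 0.5% additive. Pots stay in the greenhouse under good growth conditions. Activity is rated visually as a percentage of untreated controls after about three weeks.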

harmful plants = test: Herbicidal pre-emergence action 2a, summary across species; format: in vivo; conditions: Tables B1 to B15 (320 g/ha and/or 80 g/ha)
Procedure, shortened: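 Pre-emergence greenhouse test: WP or EC formulations sprayed onto soil covering sown weed and crop seeds, 600 l/ha water with 0.5% additive, at 320 g/ha and/or 80 g/ha. Damage scored visually after about 3 weeks as % versus untreated control (100% = plants dead).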

DIGSA = test: Herbicidal pre-emergence action 2a (greenhouse pots, visual scoring); format: in vivo, Digitaria sanguinalis; conditions: dosage 320 g/ha, visual scoring after about 3 weeks
Procedure, shortened: as §1

PHBPU = test: as above; format: in vivo, Pharbitis purpurea; conditions: dosage 320 g/ha, visual scoring after about 3 weeks vs untreated controls
Procedure, shortened: as §1

VERPE [3] = test: Herbicidal post-emergence action 1a (greenhouse pots, visual rating); format: in vivo, Veronica persica; conditions: visual rating about 3 weeks after treatment
Procedure, shortened: (§3)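 Weeds and crops sown in sandy loam in greenhouse pots were sprayed post-emergence at the one-leaf stage (2–3 weeks after sowing) with WP or EC formulations plus 0.5% additive at 600 l/ha water, 320 and/or 80 g/ha. About 3 weeks later damage was rated visually against untreated controls (0% = no effect, 100% = dead).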

MATIN [4] = test: Herbicidal pre-emergence action 2b (doubly sown, 1280 g/ha); format: in vivo, Matricaria inodora; conditions: doubly sown pots, dosage 1280 g/ha, visual scoring after about 3 weeks
Procedure, shortened: as §2

ABUTH = test: Herbicidal post-emergence action 1a (greenhouse pots, visual rating); format: in vivo, Abutilon theophrasti; conditions: visual rating about 3 weeks after treatment
Procedure, shortened: as §3

ECHCG [5] = test: as above; format: in vivo, Echinochloa crus-galli; conditions: rated visually about 3 weeks after treatment, 100% = plants have died, 0% = like control plants
Procedure, shortened: as §3

POLCO = test: as above; format: in vivo, Polygonum convolvulus; conditions: visual rating about 3 weeks after treatment
Procedure, shortened: as §3

MATIN [6] = test: Herbicidal pre-emergence action 2a (greenhouse pots, visual scoring); format: in vivo, Matricaria inodora; conditions: dosage 320 g/ha, visual scoring after about 3 weeks vs untreated controls
Procedure, shortened: as §1

STEME = test: Herbicidal pre-emergence action 2b (doubly sown, 1280 g/ha); format: in vivo, Stellaria media; conditions: doubly sown pots, dosage 1280 g/ha, visual scoring after about 3 weeks
Procedure, shortened: as §2

POAAN = test: as above; format: in vivo, Poa annua; conditions: doubly sown pots, dosage 1280 g/ha, visual scoring after about 3 weeks
Procedure, shortened: as §2

ECHCG [7] = test: Herbicidal pre-emergence action 2a (greenhouse pots, visual scoring); format: in vivo, Echinochloa crus-galli; conditions: dosage 320 g/ha, visual scoring after about 3 weeks
Procedure, shortened: as §1

| SMILES | Pre-emergence action against VERPE in % (VERPE [1]) [%] | Pre-emergence action at 1280 g/ha against ECHCG in % (ECHCG [2]) [%] | herbicidal efficacy against harmful plants in the case of pre-emergence treatment (in words) (harmful plants) | Pre-emergence action against DIGSA in % (DIGSA) [%] | Pre-emergence action against PHBPU in % (PHBPU) [%] | Post-emergence action against VERPE in % (VERPE [3]; dosage 80 g/ha) [%] | Post-emergence action against VERPE in % (VERPE [3]; dosage 320 g/ha) [%] | Pre-emergence action at 1280 g/ha against MATIN in % (MATIN [4]) [%] | Post-emergence action against ABUTH in % (ABUTH; dosage 320 g/ha) [%] | Post-emergence action against ECHCG in % (ECHCG [5]; Dosage 320 g/ha) [%] | Post-emergence action against POLCO in % (POLCO; dosage 320 g/ha) [%] | Pre-emergence action against MATIN in % (MATIN [6]) [%] | Pre-emergence action at 1280 g/ha against STEME in % (STEME) [%] | Pre-emergence action at 1280 g/ha against POAAN in % (POAAN) [%] | Pre-emergence action against ECHCG in % (ECHCG [7]) [%] | Post-emergence action against POLCO in % (POLCO; dosage 80 g/ha) [%] | Post-emergence action against ABUTH in % (ABUTH; dosage 80 g/ha) [%] | Post-emergence action against ECHCG in % (ECHCG [5]; Dosage 80 g/ha) [%] |
| --- | --- | --- | --- | --- | --- | --- | --- | --- | --- | --- | --- | --- | --- | --- | --- | --- | --- | --- |
| COC(=O)COc1nn(-c2cnccn2)c(-c2ccc(F)nc2)c1Br [Example I-11] | 90 | 90 | good herbicidal efficacy | 100 | 90 | 90 | 90 | 90 | 80 | 80 | 90 | 90 | 100 | 100 | – | – | – | – |
| CCOC(=O)COc1nn(-c2cnccn2)c(-c2ccc(F)nc2)c1Br [Example I-52, ethyl {[4-bromo-5-(6-fluoropyridin-3-yl)-1-(pyrazin-2-yl)-1H-pyrazol-3-yl]oxy}acetate] | 90 | – | good herbicidal efficacy | 100 | 100 | – | 90 | 90 | 80 | 80 | 80 | 90 | 100 | 100 | – | – | – | – |
| CCOC(=O)COc1nn(-c2cnccn2)c(-c2ccccc2)c1Br [Example I-01] | 90 | 100 | good herbicidal efficacy | 90 | – | 80 | 90 | 100 | 80 | 90 | 80 | 90 | 100 | 100 | 80 | 80 | – | – |
| COC(=O)[C@@H](C)Oc1nn(-c2cnccn2)c(-c2cccc(F)c2)c1Br [Example I-20] | 100 | 100 | good herbicidal efficacy | 100 | – | 80 | 90 | 100 | 90 | 80 | 80 | 90 | 100 | 100 | 90 | – | 80 | – |
| COC(=O)[C@@H](C)Oc1nn(-c2cnccn2)c(-c2cncc(F)c2)c1Br [Example I-39] | 100 | 100 | good herbicidal efficacy | 100 | – | 80 | 90 | 100 | 80 | 90 | 90 | 90 | 100 | 100 | 100 | – | 80 | 80 |
| COC(=O)C(C)Oc1nn(-c2cnccn2)c(-c2ccnc(F)c2)c1Cl (racemic) [Example I-05] | 100 | 100 | good herbicidal efficacy | 100 | 80 | 80 | 90 | 90 | 80 | – | – | – | 100 | 100 | 90 | 80 | – | – |
| C[C@H](Oc1nn(-c2cnccn2)c(-c2cncc(F)c2)c1Br)C(=O)O [Example I-37] | 100 | 100 | good herbicidal efficacy | 100 | – | 80 | 90 | 100 | 80 | 90 | 100 | 90 | 100 | 100 | 90 | – | 80 | – |
| CCOC(=O)COc1nn(-c2cnccn2)c(-c2ccc(F)nc2)c1Cl [Example I-53] | 90 | 100 | good herbicidal efficacy | 100 | – | 80 | – | 100 | – | – | 90 | 100 | 100 | 100 | 100 | 90 | 80 | 80 |
